Laboratory results taken from US20260248744A1, “USE OF NON-TOXIC POLYAMINE ANALOGUES AND/OR INHIBITORS OF POLYAMINE BIOSYNTHESIS TO RE-BALANCE NATURAL POLYAMINE LEVELS IN SNYDER-ROBINSON SYNDROME AND RELATED DISORDERS” (The Johns Hopkins University, priority 2022, published 2026).

Experiments:
[1] = tested on: WT male C57Bl/6J mice; assay: Long-term in vivo exposure to low-dose (R,R)-1,12-Me2Spm in mice; settings: WT male C57Bl/6J mice (FIG. 2)
Description: Without wishing to be bound to any one particular theory, it is thought that inhibiting polyamine biosynthesis will enhance uptake of 1,12-Me2Spm and/or reduce the dose necessary for spermidine reduction.

[2] = tested on: SRS fibroblast lines; assay: Proliferation of SRS fibroblast lines cotreated with DFMO and Me2Spm; format: cell-based; settings: cotreated with DFMO and Me2Spm for 96 h (FIG. 4C)
Protocol: (FIG. 4B) DFMO cooperates with Me2Spm in improving SPD/SPM ratio, indicated by numbers above columns. […] In FIG. 4A and FIG. 4B, SRS patient-derived lymphoblastoid cells were pretreated with DFMO followed by 96-h cotreatment with DFMO and Me2Spm. SRS fibroblast lines in FIG. 4C were cotreated with DFMO and Me2Spm for 96 h;

[3] = shown previously (Murray Stewart et al., 2020); cited from earlier work
[4] = tested on: SRS cells; assay: Treatment of SRS cells with AdoDATO (polyamine levels); format: cell-based; settings: SRS cells (FIG. 6)
[5] = biological target: T1, spermidine synthase (SRM) (Homo sapiens, UniProt P19623); assay: Inhibition of spermidine synthase
T1 sequence (P19623 1-302): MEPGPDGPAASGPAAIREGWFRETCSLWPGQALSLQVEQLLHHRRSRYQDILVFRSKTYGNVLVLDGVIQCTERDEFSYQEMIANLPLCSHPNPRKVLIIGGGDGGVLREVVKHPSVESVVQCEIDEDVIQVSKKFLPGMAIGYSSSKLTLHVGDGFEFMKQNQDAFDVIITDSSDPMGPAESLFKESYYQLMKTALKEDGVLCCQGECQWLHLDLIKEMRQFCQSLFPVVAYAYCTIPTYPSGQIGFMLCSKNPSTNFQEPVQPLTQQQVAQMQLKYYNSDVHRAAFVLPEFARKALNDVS

[6] = tested on: SRS patient-derived cell lines; assay: Response of SRS patient-derived cell lines to DFMO (conversion of SPD to SPM); format: cell-based
[7] = tested on: SRS patient-derived lymphoblastoid cells; assay: Polyamine levels in SRS patient-derived lymphoblastoid cells treated with DFMO and Me2Spm; format: cell-based; settings: DFMO pretreatment followed by 96-h cotreatment (FIG. 4A)
[8] = tested on: SAMDC; assay: SAMDC activity in SRS cells treated with DFMO; format: cell-based; settings: FIG. 5C
Description: (§1) FIG. 5A, FIG. 5B, FIG. 5C, FIG. 5D, and FIG. 5E show potential therapeutic targets and molecules in the response of SRS cells to DFMO.

[9] = tested on: SRS cells with a complete loss-of-function mutation in SMS; assay: Response to DFMO of SRS cells with complete loss-of-function mutation in SMS; format: cell-based; settings: response to DFMO (FIG. 5E)
Description: as §1

[10] = tested on: children; settings: Phase 2 preventative trials in pediatric neuroblastoma; ODC1/Bachmann-Bupp trials; cited from earlier work

For `C[C@@H](N)CCNCCCCNCC[C@@H](C)N` [(R,R)-1,12-dimethylspermine], the SPD/SPM ratio [1] was “improves the SPD/SPM ratio”, the “toxicity of long-term in vivo exposure” value [1] was “nontoxic” and the “rescue of DFMO-mediated growth inhibition” value [2] was “rescues DFMO-mediated growth inhibition”. For the same compound, the metabolic stability [3] was “metabolically stable”.

With `NCCCCC[S+](CCN)CC1OC(n2cnc3c(N)ncnc32)C(O)C1O` (stereo not drawn) [AdoDATO, S-adenosyl-1,8-diamino-3-thio-octane] the SPD/SPM ratio [4] was “improves the SPD/SPM ratio”, the levels of putrescine [4] was “maintaining levels of putrescine” and the “inhibition of spermidine synthase (SRM)” value [5] was “inhibits spermidine synthase (SRM)”.

In the case of `N=C(N)c1cccc2c1CC/C2=N\N=C(N)N` [CGP48664], the “conversion to SPM on cotreatment with DFMO” value ([6]; cotreatment of DFMO with SAMDC inhibitor (FIG. 5D)) is reported as “prevents the conversion to SPM”.

In the case of difluoromethylornithine [DFMO], the “uptake of Me2Spm” value [7] is reported as “increases uptake of Me2Spm”, the SPD/SPM ratio ([6]; SRS patient-derived cell lines (FIG. 5B)) is reported as “correction of the SPD/SPM ratio” and the “conversion of SPD to SPM” value ([6]; hypomorphic SRS cells (FIG. 5A)) is reported as “enhances conversion of SPD to SPM”. The SAMDC activity [8] was “induces SAMDC activity”, the “conversion of SPD to SPM” value [9] was “do not convert SPD to SPM” and the levels of putrescine [4] was “depletes”. For the same compound, the safety in children [10] was “safe in children”.
